# Biological target: T1, ClpL (Streptococcus mutans, UniProt Q8DUH3)
# T1 sequence (Q8DUH3 1-701): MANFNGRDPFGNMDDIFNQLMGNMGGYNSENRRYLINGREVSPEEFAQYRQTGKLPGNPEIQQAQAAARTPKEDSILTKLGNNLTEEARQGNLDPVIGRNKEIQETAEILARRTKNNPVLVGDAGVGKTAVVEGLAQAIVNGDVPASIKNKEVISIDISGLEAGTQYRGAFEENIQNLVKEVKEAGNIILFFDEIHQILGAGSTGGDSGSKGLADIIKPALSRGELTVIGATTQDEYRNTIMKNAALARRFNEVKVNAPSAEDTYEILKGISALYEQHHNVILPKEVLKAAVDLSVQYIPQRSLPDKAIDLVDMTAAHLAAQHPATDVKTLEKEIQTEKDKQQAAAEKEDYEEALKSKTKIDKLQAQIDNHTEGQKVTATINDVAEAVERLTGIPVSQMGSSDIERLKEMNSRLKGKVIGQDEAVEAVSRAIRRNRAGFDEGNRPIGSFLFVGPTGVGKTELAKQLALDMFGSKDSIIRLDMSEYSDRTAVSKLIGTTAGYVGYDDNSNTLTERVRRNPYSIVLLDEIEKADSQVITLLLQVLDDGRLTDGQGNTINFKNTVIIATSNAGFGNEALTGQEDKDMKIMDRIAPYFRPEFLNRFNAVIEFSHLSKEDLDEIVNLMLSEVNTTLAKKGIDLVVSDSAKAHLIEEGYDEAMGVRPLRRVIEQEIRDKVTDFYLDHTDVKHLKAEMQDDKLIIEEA
# Assay: protection from limited trypsin proteolysis, SDS-PAGE
# Assay type: binding
# Settings: 1 mM ADP (legend; methods say 5 mM), 20 mM MgCl2, room temperature
structure (smiles),measurement,value
Nc1ncnc2c1ncn2[C@@H]1O[C@H](COP(=O)(O)OP(=O)(O)O)[C@@H](O)[C@H]1O [ADP],"protection from limited trypsin proteolysis, SDS-PAGE",Addition of ATP or ADP dramatically increased the stability of ClpL to trypsin digestion.
